Patent US6452050B1, “Synthesis and use of α-ketoamide derivatives and arrays” (ArQule, Inc., priority 1997, dated 2002)

Biological target: T1, Cathepsin B (EC 3.4.22.1, from human liver) (Homo sapiens, UniProt P07858)
T1 construct: Cathepsin B (EC 3.4.22.1, from human liver) was purchased from Sigma Chemical Company; purchased Sigma Chemical Company (St. Louis, Mo.); host or cells: human liver
Assay: High-throughput fluorometric cathepsin B assay (Z-F-R-AMC substrate)
Format: biochemical
Conditions: cruzain versus cathepsin B IC50
Description: A fluorometric high throughput cathepsin B assay for detecting inhibitory activity was developed in 96-well microtiter plate format. Benzyloxy-Phe-Arg-AMC (Z-F-R-AMC; Molecular Probes, Inc., Eugene, Oreg.) was the substrate used in the assay (Km=150 μM). Cathepsin B (EC 3.4.22.1, from human liver) was purchased from Sigma Chemical Company (St. Louis, Mo.) in a stock solution containing 25 μg of the protein in 25 μl buffer (i.e., 20 mM sodium acetate, pH 5.0, and 1 mM EDTA).
The bioassay of the compounds was performed on a Sagian/Beckman Integrated robotic system (Beckman, Fullerton, Calif.). Inhibition of enzyme activity was measured via fluorescent detection. Fluorescence readings were taken at an excitation wavelength of […] (λmax=350 nm) and an emission wavelength of 430 nm (λmax=430 nm) on a BMG FluoStar (BMG, Durham, N.C.). […]
The reaction was initiated by the addition of the cathepsin B (0.46 ng/ml) in the assay buffer containing dithiothreitol (giving a final concentration of 1.5 mM). […] The activity was obtained by observing the end point absorbance reading after quenching. The percentage of inhibition was calculated by dividing the absorbance measured in the presence of inhibitor plus enzyme (inhibited signal) by the absorbance measured in the presence of enzyme alone (full signal) minus the absorbance obtained in the absence of both inhibitors and the enzyme (background). […]

Q: With `O=C(Nc1ccc(CNC(=O)C(=O)c2ccc(-c3ccccc3)cc2)cc1)Nc1ccc(-c2ccccc2)cc1` [Compound 4] as the compound, how does the “selectivity over cathepsin B” value read?
A: greater than 20 fold
